System: compound 48/80-induced lethality in rats
Experiment: Protection of rats from compound 48/80-induced lethality
Assay type: in vivo
Settings: Rattus norvegicus, subcutaneous administration (sc)
Text: Int. Pharmacodyn. Ther. 251, 39-51 (1981).
The term (sc) signifies subcutaneous administration.

Row | Compound | ED50
1 | CCn1nnn(CCN2CCC(Cc3nc4ccccc4n3Cc3ccc(CO)o3)CC2)c1=O [1.07] | 0.04 mg/kg
2 | Cc1nc2sccn2c(=O)c1CCN1CCC(Cc2nc3ccccc3n2Cc2ccc(CO)o2)CC1 [1.08] | 0.01 mg/kg
3 | Cc1nc2ccccn2c(=O)c1CCN1CCC(Cc2nc3ccccc3n2Cc2ccc(CO)o2)CC1 [1.09] | 0.02 mg/kg
4 | Cc1nc2n(c(=O)c1CCN1CCC(Cc3nc4ccccc4n3Cc3ccc(CO)o3)CC1)CCS2 [1.10] | 0.01 mg/kg
5 | COc1ccc(CCN2CCC(Cc3nc4ccccc4n3Cc3ccc(CO)o3)CC2)cc1 [1.11] | 0.04 mg/kg
6 | CC(C)NC(=O)CCN1CCC(Cc2nc3ccccc3n2Cc2ccc(CO)o2)CC1 [1.12] | 0.01 mg/kg
7 | Cn1cccc1C(=O)NCCN1CCC(Cc2nc3ccccc3n2Cc2ccc(CO)o2)CC1 [1.15] | 0.04 mg/kg
8 | OCc1ccc(Cn2c(CC3CCN(CCNc4cnccn4)CC3)nc3ccccc32)o1 [1.22] | 0.04 mg/kg
9 | OCc1ccc(Cn2c(CC3CCN(CCNc4ncccn4)CC3)nc3ccccc32)o1 [1.23] | 0.02 mg/kg
10 | Cc1nc2sccn2c(=O)c1CCN1CCC(Nc2nc3cccnc3n2Cc2ccc(CO)o2)CC1 [2.09] | 0.01 mg/kg
11 | Cc1nc2ccccn2c(=O)c1CCN1CCC(Nc2nc3cccnc3n2Cc2ccc(CO)o2)CC1 [2.10] | 0.04 mg/kg
12 | Cc1cc2nc(C)c(CCN3CCC(Nc4nc5cccnc5n4Cc4ccc(CO)o4)CC3)c(=O)n2o1 [2.32] | 0.02 mg/kg
13 | Cc1nc2n(c(=O)c1CCN1CCC(Cc3nc4cccnc4n3Cc3ccc(CO)o3)CC1)CCCS2 [2.33] | 0.04 mg/kg
14 | CN1CCC(Nc2nc3ccccc3n2Cc2ccc(CO)o2)CC1 [3.03] | 0.02 mg/kg
15 | CCn1nnn(CCN2CCC(Nc3nc4ccccc4n3Cc3ccc(CO)o3)CC2)c1=O [3.13] | 0.04 mg/kg
16 | Cc1nc2n(c(=O)c1CCN1CCC(Nc3nc4ccccc4n3Cc3ccc(CO)o3)CC1)CCS2 [3.15] | 0.04 mg/kg
17 | Cc1nc2ccccn2c(=O)c1CCN1CCC(Nc2nc3ccccc3n2Cc2ccc(CO)o2)CC1 [3.17] | 0.04 mg/kg
18 | O=c1[nH]c2ccccc2n1CCN1CCC(Nc2nc3ccccc3n2Cc2ccc(CO)o2)CC1 [3.19] | 0.02 mg/kg
19 | Cc1nc2sccn2c(=O)c1CCN1CCC(Nc2nc3cncnc3n2Cc2ccc(CO)o2)CC1 [5.03] | 0.04 mg/kg
20 | CN1CCC(Nc2nc3cncnc3n2Cc2ccc(CO)o2)CC1 [5.04] | 0.02 mg/kg
21 | CN1CCC(Cc2nc3ccccc3n2Cc2ccc(CO)o2)CC1 [Co. No. 1.17, 5-[[2-[(1-methyl-4-piperidinyl)methyl]-1H-benzimidazol-1-yl]methyl]-2-furanmethanol] | 0.04 mg/kg
22 | O=C(O)C(=O)O.O=C(O)C(=O)O.O=C(O)C(=O)O.OCc1ccc(Cn2c(CC3CCN(CCNc4cccnn4)CC3)nc3ccccc32)o1 [Co. No. 1.24, 5-[[2-[[1-[2-(3-pyridazinylamino)ethyl]-4-piperidinyl]methyl]-1H-benzimidazol-1-yl]methyl]-2-furanmethanol ethanedioate (1:3)] | 0.02 mg/kg
23 | O=c1ccc(NCCN2CCC(Cc3nc4ccccc4n3Cc3ccc(CO)o3)CC2)n[nH]1 [Co. No. 1.25, 6-[[2-[4-[[1-[[5-(hydroxymethyl)-2-furanyl]methyl]-1H-benzimidazol-2-yl]methyl]-1-piperidinyl]ethyl]amino]-3(2H)-pyridazinone ethanedioate (2:5)] | 0.01 mg/kg
24 | OCc1ccc(Cn2c(CC3CCN(CCc4ccccn4)CC3)nc3cccnc32)o1 [Co. No. 2.35, 5-[[2-[[1-[2-(2-pyridinyl)ethyl]-4-piperidinyl]methyl]-3H-imidazo[4,5-b]-pyridin-3-yl]methyl]-2-furanmethanol (E)-2-butenedioate(2:3)] | 0.02 mg/kg
25 | OCc1ccc(Cn2c(NC3CCNCC3)nc3ccccc32)o1 [Co. No. 3.11, 5-[[2-(4-piperidinylamino)-1H-benzimidazol-1-yl]methyl]-2-furanamethanol] | 0.04 mg/kg
26 | CC(C)NC(=O)CCN1CCC(Nc2nc3ccccc3n2Cc2ccc(CO)o2)CC1 [Co. No. 3.12] | 0.04 mg/kg
27 | N#CCN1CCC(Nc2nc3ccccc3n2Cc2ccc(CO)o2)CC1 [Co. No. 3.22, 4-[[1-[[5-(hydroxymethyl)-2-furanyl]-methyl]-1H-benzimidazol-2-yl]amino]-1-piperidineacetonitrile] | 0.04 mg/kg
28 | O=[N+]([O-])c1cnccc1NCCN1CCC(Nc2nc3ccccc3n2Cc2ccc(CO)o2)CC1 [Co. No. 3.26, 5-[[2-[[1-[2-[(3-nitro-4-pyridinyl)amino]-ethyl]-4-piperidinyl]amino]-1H-benzimidazol-1-yl]methyl]-2-furanmethanol] | 0.04 mg/kg
29 | Cc1nc2n(c(=O)c1CCN1CCC(Nc3nc4ccccc4n3Cc3ccc(CO)o3)CC1)CCCS2 [Co. No. 3.31] | 0.04 mg/kg
30 | O=[N+]([O-])c1cnccc1NCCN1CCCC(Nc2nc3ccccc3n2Cc2ccc(CO)o2)CC1 (stereo not drawn) [Co. No. 4.14, 5-[[2-[[hexahydro-1-[2-[(3-nitro-4-pyridinyl)amino]ethyl]-1H-azepin-4-yl]amino]-1H-benzimidazol-1-yl]methyl]-2-furanmethanol hemihydrate] | 0.04 mg/kg
